Measured values from BindingDB's records for doi:10.1074/jbc.271.28.16435 (Merck Research Laboratories, 1996).

Assays:
[1] = target: T1, Neuropeptide Y receptor type 1 (Mus musculus, UniProt Q04573)
T1 sequence (Q04573 whole entry): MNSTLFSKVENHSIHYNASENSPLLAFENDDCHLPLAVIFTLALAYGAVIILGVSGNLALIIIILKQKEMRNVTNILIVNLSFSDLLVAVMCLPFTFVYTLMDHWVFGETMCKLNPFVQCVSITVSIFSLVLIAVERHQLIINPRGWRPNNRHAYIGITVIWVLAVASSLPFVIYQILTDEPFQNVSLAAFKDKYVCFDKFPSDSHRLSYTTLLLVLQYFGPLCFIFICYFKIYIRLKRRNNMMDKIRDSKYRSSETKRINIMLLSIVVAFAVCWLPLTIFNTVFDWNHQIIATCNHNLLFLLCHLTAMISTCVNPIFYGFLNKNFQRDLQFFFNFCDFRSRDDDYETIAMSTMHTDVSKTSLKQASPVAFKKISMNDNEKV

[2] = target: T2, Neuropeptide Y receptor type 5 (Mus musculus, UniProt O70342)
T2 sequence (O70342 whole entry): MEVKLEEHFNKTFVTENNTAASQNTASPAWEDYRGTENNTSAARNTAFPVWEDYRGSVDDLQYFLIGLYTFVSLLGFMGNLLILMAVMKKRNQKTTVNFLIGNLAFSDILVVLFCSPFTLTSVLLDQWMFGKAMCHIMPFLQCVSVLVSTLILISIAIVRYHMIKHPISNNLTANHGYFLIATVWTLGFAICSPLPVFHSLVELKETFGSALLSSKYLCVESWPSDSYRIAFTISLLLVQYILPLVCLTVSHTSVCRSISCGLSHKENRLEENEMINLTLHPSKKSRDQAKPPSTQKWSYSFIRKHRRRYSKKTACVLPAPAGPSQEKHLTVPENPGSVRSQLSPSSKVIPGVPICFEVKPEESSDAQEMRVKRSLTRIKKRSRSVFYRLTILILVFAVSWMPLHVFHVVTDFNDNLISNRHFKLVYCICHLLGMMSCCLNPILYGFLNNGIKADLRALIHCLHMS

Work on `CC[C@H](C)[C@H](NC(=O)[C@H](Cc1ccc(O)cc1)NC(=O)[C@H](CCCNC(=N)N)NC(=O)[C@H](CCCNC(=N)N)NC(=O)[C@H](CC(C)C)NC(=O)[C@H](CC(=O)O)NC(=O)[C@H](C)NC(=O)[C@H](C)NC(=O)[C@H](Cc1ccc(O)cc1)NC(=O)[C@H](CCC(N)=O)NC(=O)[C@H](C)NC(=O)[C@H](CCSC)NC(=O)[C@H](CCC(N)=O)NC(=O)[C@H](CCC(=O)O)NC(=O)[C@@H]1CCCN1C(=O)[C@@H](NC(=O)[C@H](C)NC(=O)[C@H](CC(N)=O)NC(=O)[C@H](CC(=O)O)NC(=O)CNC(=O)[C@@H]1CCCN1C(=O)[C@H](Cc1ccc(O)cc1)NC(=O)[C@@H](NC(=O)[C@@H]1CCCN1C(=O)[C@H](CCC(=O)O)NC(=O)[C@H](CC(C)C)NC(=O)[C@@H]1CCCN1C(=O)[C@H](C)N)C(C)C)[C@@H](C)O)C(=O)N[C@@H](CC(N)=O)C(=O)N[C@@H](CCSC)C(=O)N[C@@H](CC(C)C)C(=O)N[C@H](C(=O)N[C@@H](CCCNC(=N)N)C(=O)N1CCC[C@H]1C(=O)N[C@@H](CCCNC(=N)N)C(=O)N[C@@H](Cc1ccc(O)cc1)C(N)=O)[C@@H](C)O` [CAS_59763-91-6] yielded a Ki [1] of 122 nM and a Ki [2] of 1000 nM.
